# Like-named read-outs stand apart in the source and are kept apart here.
# Key:
# JAK1 = JAK1 (Homo sapiens, UniProt P23458); details: cited from earlier work
# JAK2 = JAK2 (Homo sapiens, UniProt O60674); details: cited from earlier work
# JAK3 = biological target: T1, JAK3 (Homo sapiens, UniProt P52333); details: cited from earlier work
# T1 sequence (P52333 1-1124): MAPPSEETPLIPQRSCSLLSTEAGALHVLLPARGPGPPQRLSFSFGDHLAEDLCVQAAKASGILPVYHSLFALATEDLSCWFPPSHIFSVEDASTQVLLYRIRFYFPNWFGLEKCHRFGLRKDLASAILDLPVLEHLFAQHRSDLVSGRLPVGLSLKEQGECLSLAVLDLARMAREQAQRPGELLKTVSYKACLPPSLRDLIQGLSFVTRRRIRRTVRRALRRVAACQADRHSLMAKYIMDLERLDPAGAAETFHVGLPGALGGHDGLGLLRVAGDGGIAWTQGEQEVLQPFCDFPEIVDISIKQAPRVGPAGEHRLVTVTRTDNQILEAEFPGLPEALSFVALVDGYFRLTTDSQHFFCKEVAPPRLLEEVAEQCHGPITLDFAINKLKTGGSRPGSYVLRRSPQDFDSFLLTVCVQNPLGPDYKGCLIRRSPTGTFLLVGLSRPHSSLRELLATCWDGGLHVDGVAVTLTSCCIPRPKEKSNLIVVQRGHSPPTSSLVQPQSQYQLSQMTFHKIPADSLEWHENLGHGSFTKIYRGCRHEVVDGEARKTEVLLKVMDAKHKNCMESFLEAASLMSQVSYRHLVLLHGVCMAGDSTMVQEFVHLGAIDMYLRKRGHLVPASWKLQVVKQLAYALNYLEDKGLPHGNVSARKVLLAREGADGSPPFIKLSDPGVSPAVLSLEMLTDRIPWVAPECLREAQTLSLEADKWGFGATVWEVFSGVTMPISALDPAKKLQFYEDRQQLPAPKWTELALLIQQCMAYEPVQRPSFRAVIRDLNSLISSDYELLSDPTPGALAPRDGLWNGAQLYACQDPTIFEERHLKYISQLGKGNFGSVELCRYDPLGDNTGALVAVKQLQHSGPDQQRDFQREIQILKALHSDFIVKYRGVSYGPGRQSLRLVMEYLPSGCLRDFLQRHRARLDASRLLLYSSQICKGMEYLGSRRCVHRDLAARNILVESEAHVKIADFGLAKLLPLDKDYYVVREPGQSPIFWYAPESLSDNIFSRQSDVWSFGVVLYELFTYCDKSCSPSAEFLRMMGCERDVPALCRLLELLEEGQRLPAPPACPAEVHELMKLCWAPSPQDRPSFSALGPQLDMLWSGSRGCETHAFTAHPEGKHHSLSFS
# TYK2 = TYK2 (Homo sapiens, UniProt P29597); details: cited from earlier work
# [1] = test system: pro-inflammatory and pro-fibrotic cytokines; details: cited from earlier work
# [2] = in vivo; cited from earlier work
# [3] = Dynamic moisture sorption (DMS) assessment; type: physicochemical
# Method: Dynamic moisture sorption (DMS) measurement was performed using a VTI atmospheric microbalance, SGA-100 system (VTI Corp., Hialeah, Fla. 33016). A weighed sample was used and the humidity was at the lowest possible value (close to 0% RH) at the start of the analysis. The DMS analysis consisted of an initial drying step (˜0% RH) for 16 hours, followed by two cycles of sorption and desorption with a scan rate of 5% RH/step over the humidity range of 5% RH to 90% RH. The DMS run was performed isothermally at 25° C.
# [4] = Stability study, storage at 40° C. and 75% relative humidity, analysed by HPLC; type: physicochemical
# Method: Samples of the crystalline form were stored in glass vials with screw caps at 40° C. and 75% relative humidity (RH). At specific intervals, the contents of a representative sample were removed and analyzed by HPLC for assay and chemical purity as shown in Table 3.
# [5] = Solubility of the crystalline form in water and Simulated Lung Fluid; type: physicochemical
# Method: The solubility of the crystalline form was assessed in water and Simulated Lung Fluid (SLF). The crystalline form was dispersed in liquid media in multiple vials to form slurries, with each vial containing about 7.5 mg of the crystalline form and 0.5 mL of the liquid media. The slurries were agitated in a thermo-shaker at 25° C. and samples were collected from different vials at approximately 5, 15, 30, 60 minutes, and 24 hours. At each of the timepoints, the slurries were centrifuged for 10 minutes. The supernatant was collected and centrifuged for another 10 minutes. Solubility at each timepoint is determined by analyzing the compound concentration in the supernatant using HPLC. SLF composition: 0.4% NaCl, 0.02% DPPC in 50 mM phosphate buffer pH 6.9
# [6] = Thermogravimetric analysis (TGA); type: physicochemical; details: heating rate of 10° C., ambient to 360° C., nitrogen
# Method: Thermogravimetric analysis (TGA) measurements were performed using a TA Instruments Model Q-50 module equipped with high resolution capability. Data were collected using TA Instruments Thermal Analyst controller and analyzed using TA Instruments Universal Analysis software. A weighed sample was placed onto a platinum pan and scanned with a heating rate of 10° C. from ambient temperature to 360° C. The balance and furnace chambers were purged with nitrogen flow during use. The crystalline form decomposes at an onset temperature of about 285° C.
# [7] = T = 3 Months, 40° C. and 75% RH
# [8] = T = 6 Months, 40° C. and 75% RH
# JAK1, sequence (P23458 whole entry): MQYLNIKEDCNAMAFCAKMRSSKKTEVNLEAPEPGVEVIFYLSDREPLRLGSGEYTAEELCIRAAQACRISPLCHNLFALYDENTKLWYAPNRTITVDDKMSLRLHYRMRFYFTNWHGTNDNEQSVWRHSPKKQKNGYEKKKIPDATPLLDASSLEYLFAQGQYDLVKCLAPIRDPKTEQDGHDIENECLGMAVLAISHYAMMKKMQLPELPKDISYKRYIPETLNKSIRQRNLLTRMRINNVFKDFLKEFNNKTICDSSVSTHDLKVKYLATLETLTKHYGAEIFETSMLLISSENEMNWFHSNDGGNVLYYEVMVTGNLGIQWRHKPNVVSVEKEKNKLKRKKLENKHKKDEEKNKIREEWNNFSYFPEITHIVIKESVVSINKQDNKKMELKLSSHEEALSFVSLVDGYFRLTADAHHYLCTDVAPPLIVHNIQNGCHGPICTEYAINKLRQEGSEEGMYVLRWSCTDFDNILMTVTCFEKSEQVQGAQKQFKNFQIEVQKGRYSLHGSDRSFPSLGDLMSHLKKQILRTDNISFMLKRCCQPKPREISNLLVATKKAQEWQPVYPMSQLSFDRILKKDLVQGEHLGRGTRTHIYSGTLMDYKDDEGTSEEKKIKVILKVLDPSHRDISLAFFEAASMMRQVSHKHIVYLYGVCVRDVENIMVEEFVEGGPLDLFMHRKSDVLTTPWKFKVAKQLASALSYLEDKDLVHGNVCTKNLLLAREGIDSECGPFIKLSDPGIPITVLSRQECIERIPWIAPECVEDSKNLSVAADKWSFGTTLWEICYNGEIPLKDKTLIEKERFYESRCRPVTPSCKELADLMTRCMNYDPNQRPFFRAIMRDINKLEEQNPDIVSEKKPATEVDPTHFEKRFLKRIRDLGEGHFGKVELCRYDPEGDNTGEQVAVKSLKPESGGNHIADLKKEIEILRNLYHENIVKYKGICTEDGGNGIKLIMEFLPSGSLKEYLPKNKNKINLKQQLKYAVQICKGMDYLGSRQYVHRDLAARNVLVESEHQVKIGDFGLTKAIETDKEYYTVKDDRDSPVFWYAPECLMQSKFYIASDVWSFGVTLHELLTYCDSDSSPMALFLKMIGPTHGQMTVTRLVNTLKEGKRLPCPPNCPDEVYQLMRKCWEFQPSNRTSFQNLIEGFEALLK
# JAK2, sequence (O60674 whole entry): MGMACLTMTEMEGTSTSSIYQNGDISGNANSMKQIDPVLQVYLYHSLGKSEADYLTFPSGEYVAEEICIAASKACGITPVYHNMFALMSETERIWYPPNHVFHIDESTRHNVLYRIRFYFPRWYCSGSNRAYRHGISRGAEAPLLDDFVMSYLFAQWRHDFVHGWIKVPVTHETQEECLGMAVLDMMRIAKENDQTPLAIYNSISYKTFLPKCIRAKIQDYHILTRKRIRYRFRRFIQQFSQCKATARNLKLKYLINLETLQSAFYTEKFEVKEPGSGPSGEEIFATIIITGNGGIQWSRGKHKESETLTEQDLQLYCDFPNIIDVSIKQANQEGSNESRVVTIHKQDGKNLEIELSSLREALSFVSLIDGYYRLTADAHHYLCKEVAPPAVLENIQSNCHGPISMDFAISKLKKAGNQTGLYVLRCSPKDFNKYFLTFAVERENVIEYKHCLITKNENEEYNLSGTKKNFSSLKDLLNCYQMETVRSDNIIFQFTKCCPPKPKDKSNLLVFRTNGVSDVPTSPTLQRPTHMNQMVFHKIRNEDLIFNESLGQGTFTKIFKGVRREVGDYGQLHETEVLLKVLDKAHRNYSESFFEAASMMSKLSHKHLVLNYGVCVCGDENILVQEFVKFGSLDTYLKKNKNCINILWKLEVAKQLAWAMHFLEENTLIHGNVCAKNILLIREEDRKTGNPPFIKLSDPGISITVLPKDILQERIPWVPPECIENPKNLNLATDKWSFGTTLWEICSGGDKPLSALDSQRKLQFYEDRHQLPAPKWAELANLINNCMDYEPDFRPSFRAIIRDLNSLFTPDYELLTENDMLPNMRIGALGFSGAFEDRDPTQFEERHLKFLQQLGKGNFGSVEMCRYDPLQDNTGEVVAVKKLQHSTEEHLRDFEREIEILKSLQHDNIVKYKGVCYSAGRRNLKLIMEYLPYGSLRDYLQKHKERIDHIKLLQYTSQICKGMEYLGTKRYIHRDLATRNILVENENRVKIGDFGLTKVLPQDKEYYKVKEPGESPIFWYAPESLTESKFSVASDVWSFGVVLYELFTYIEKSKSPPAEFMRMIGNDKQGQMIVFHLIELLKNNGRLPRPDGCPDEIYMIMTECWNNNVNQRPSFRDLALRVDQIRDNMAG
# TYK2, sequence (P29597 whole entry): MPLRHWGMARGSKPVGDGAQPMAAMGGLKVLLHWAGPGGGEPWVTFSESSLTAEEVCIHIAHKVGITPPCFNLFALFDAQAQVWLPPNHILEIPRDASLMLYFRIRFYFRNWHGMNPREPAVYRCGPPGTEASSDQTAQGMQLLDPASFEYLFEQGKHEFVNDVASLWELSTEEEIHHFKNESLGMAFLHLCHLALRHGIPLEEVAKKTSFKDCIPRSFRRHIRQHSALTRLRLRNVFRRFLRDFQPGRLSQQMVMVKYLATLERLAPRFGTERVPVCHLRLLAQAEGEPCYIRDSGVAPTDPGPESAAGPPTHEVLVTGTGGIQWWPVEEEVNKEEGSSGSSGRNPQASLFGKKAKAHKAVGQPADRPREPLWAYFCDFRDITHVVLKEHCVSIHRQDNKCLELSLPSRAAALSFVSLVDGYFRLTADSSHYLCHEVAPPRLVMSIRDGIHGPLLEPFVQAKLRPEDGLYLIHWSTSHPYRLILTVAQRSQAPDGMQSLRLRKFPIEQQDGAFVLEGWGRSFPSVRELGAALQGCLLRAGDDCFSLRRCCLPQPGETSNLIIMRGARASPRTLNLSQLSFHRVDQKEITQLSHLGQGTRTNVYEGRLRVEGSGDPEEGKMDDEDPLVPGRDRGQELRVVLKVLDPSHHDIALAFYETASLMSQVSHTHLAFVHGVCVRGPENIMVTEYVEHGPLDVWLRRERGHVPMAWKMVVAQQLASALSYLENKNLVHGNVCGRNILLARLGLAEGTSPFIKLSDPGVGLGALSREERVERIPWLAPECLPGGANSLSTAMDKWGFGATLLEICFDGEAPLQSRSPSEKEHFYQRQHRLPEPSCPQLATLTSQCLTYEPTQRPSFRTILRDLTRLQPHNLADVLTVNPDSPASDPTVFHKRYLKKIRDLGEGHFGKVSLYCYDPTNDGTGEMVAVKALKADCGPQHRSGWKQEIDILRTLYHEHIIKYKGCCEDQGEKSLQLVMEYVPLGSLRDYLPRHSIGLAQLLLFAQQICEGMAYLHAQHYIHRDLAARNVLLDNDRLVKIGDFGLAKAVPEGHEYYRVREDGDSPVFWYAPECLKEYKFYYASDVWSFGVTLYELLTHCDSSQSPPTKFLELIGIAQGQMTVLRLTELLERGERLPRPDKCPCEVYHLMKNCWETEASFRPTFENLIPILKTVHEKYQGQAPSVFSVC
smiles,measurement,setting,value
"CCc1cc(O)c(F)cc1-c1ccc2c(-c3nc4c([nH]3)CCN(C3CCN(C)CC3)C4)n[nH]c2c1 [compound 1, 5-ethyl-2-fluoro-4-(3-(5-(1-methylpiperidin-4-yl)-4,5,6,7-tetrahydro-1H-imidazo[4,5-c]pyridin-2-yl)-1H-indazol-6-yl)phenol]",inhibition of JAK1 (in words),JAK1,potent inhibitor
same,inhibition of JAK2 (in words),JAK2,potent inhibitor
same,inhibition of JAK3 (in words),JAK3,potent inhibitor
same,inhibition of TYK2 (in words),TYK2,potent inhibitor
same,inhibition of pro-inflammatory and pro-fibrotic cytokines (in words),[1],potent inhibition
same,lung retention (in words),[2],significant lung retention
"CCc1cc(O)c(F)cc1-c1ccc2c(-c3nc4c([nH]3)CCN(C3CCN(C)CC3)C4)n[nH]c2c1 [crystalline form, 5-ethyl-2-fluoro-4-(3-(5-(1-methylpiperidin-4-yl)-4,5,6,7-tetrahydro-1H-imidazo[4,5-c]pyridin-2-yl)-1H-indazol-6-yl)phenol, 2HCl Crystalline Form]",change in form after two cycles of moisture sorption and desorption,"[3]; 5% RH to 90% RH, 25° C.",no change in form
same,total moisture uptake,"[3]; relative humidity between about 5% and about 90%, room temperature (25° C.)",about 0.8%
same,Assay % w/w,[4]; T = 0,85.0 % w/w
same,HPLC purity % a/a,[4]; T = 0,98.7 % a/a
same,Assay % w/w,"[4]; T = 1 Week, 40° C. and 75% RH",86.8 % w/w
same,HPLC purity % a/a,"[4]; T = 1 Week, 40° C. and 75% RH",98.7 % a/a
same,Assay % w/w,"[4]; T = 2 Weeks, 40° C. and 75% RH",85.1 % w/w
same,HPLC purity % a/a,"[4]; T = 2 Weeks, 40° C. and 75% RH",98.7 % a/a
same,Assay % w/w,[4]; [7],84.5 % w/w
same,HPLC purity % a/a,[4]; [7],98.7 % a/a
same,Assay % w/w,"[4]; T = 4 Weeks, 40° C. and 75% RH",86.9 % w/w
same,HPLC purity % a/a,"[4]; T = 4 Weeks, 40° C. and 75% RH",98.7 % a/a
same,Assay % w/w,[4]; [8],85.1 % w/w
same,HPLC purity % a/a,[4]; [8],98.5 % a/a
same,change in purity or assay,[4]; after 6 months at 40° C. and 75% RH,no significant change
same,solubility at 30 min,"[5]; Simulated Lung Fluid (SLF), fassgf or other biorelevant, thermodynamic from solid, Simulated Lung Fluid pH 6.9, 25° C., 30 minutes",210 µg/mL
same,solubility at 24 h,"[5]; Simulated Lung Fluid (SLF), pH 6.9, fassgf or other biorelevant, thermodynamic from solid, Simulated Lung Fluid, 25° C., read-out: solubility in SLF",70 µg/mL
same,solubility in simulated lung fluid (in words),[5]; simulated lung fluid,good solubility
same,solubility at 60 min,"[5]; thermodynamic from solid, water, 25° C., 60 minutes",8900 µg/mL
same,solubility at 24 h,"[5]; thermodynamic from solid, water, 25° C., read-out: solubility in water",3200 µg/mL
same,solubility in water (in words),[5]; water,good solubility
same,decomposition onset temperature (TGA),[6],about 285 °C

# — patent US20220306626A1, “CRYSTALLINE FORM OF A DIHYDROCHLORIDE SALT OF A JAK INHIBITOR COMPOUND” (Theravance Biopharma R&D IP, LLC, priority 2021, published 2022)
